# From ChEMBL document CHEMBL1212835, “Identification of a potent and noncytotoxic inhibitor of melanin production” (Bioorg Med Chem, 2010)
# Where “and” joins values, the source holds several entries; their conditions need not be identical. Equal entries are not always repeated. Calls of active or inactive are those of the source. The rule behind the calls is not given here.
# Test system: not listed separately
# Assay: Cytotoxicity against mouse Melan-a cells assessed as cell viability at 30 uM
# Assay type: cell-based
# Conditions: Melan-a cells, read-out: Activity
row,SMILES,viability at 30 µM [%]
1,COc1cccc(C(=O)Nc2ccc(OC)cc2OC)c1,-3.9
2,COC(=O)c1ccccc1NC(=O)c1ccc(OC)cc1,31.1
3,Cc1cccc(NC(=O)c2ccc(C#N)cc2)c1,11.1
4,COc1ccc(OC)c(NC(=O)c2ccc(C#N)cc2)c1,-1.7
5,COc1ccc(NC(=O)c2ccccc2C)cc1,12.8
6,Cc1ccccc1C(=O)Nc1cc(C(F)(F)F)cc(C(F)(F)F)c1,15.1
7,COC(=O)c1cccc(NC(=O)c2ccc(C#N)cc2)c1,0.8
8,COC(=O)c1cccc(NC(=O)c2cccc(OC)c2)c1,20.1
9,COc1cccc(NC(=O)c2ccco2)c1,0.4
10,COc1cccc(C(=O)Nc2ccccc2OC)c1,10.1
11,CCCCOc1ccc(NC(=O)c2ccccc2C)cc1,9.9
12,CCc1ccc(C(=O)Nc2cc(C(F)(F)F)cc(C(F)(F)F)c2)cc1,16.5
13,COC(=O)c1ccc(NC(=O)c2ccc(C#N)cc2)cc1,14.2
14,COc1ccc(C(=O)Nc2ccc(OC)cc2OC)cc1,-9.4
15,CCCCOc1ccc(NC(=O)c2ccc(CC)cc2)cc1,-10.8
16,COc1cc(NC(=O)c2cccc(C)c2)cc(OC)c1,-12.6
17,COc1ccc(NC(=O)c2ccccc2C)c(OC)c1,-3.5
18,CCCCOc1ccc(NC(=O)c2ccco2)cc1,3.7
19,CCc1ccc(C(=O)Nc2ccc(OC)cc2OC)cc1,-6.5
20,COC(=O)c1ccc(NC(=O)c2ccc(C)cc2)cc1,11.2
21,COc1cccc(NC(=O)c2cccc(C)c2)c1,-0.3
22,COC(=O)c1ccccc1NC(=O)c1ccccc1C,9.7
23,COC(=O)c1ccc(NC(=O)c2cccc(C)c2)cc1,12.9
24,COc1ccc(C(=O)Nc2cc(OC)ccc2OC)cc1,-8.3

row,SMILES,viability at 30 µM [%]
1,COc1ccc(C(=O)Nc2cc(C(F)(F)F)cc(C(F)(F)F)c2)cc1,21
2,COC(=O)c1ccc(NC(=O)c2ccco2)cc1,-8.4
3,COC(=O)c1ccc(NC(=O)c2ccccc2C)cc1,0.8
4,COc1ccc(NC(=O)c2ccco2)c(OC)c1,-24.1
5,COc1cc(NC(=O)c2cccc(OC)c2)cc(OC)c1,9.6
6,COc1ccc(C(=O)Nc2ccc(C(C)=O)cc2)cc1,0.7
7,COC(=O)c1ccccc1NC(=O)c1ccc(C#N)cc1,8
8,COc1ccccc1NC(=O)c1ccc(C)cc1,18.5
9,CCc1ccc(C(=O)Nc2cccc(C(=O)OC)c2)cc1,37
10,CCCCOc1ccc(NC(=O)c2cccc(OC)c2)cc1,19.1
11,COc1ccc(NC(=O)c2cccc(OC)c2)cc1,0.5
12,Cc1ccc(C(=O)Nc2cc(C)cc(C)c2)cc1,30.9
13,COc1cccc(NC(=O)c2cccc(OC)c2)c1,-8.4
14,COc1cccc(NC(=O)c2ccc(C)cc2)c1,2.7
15,COc1cc(NC(=O)c2ccco2)cc(OC)c1,-1.3
16,CC(=O)c1ccc(NC(=O)c2cccc(C)c2)cc1,-5.9
17,COC(=O)c1ccc(NC(=O)c2cccc(OC)c2)cc1,13.7
18,CCc1ccc(C(=O)Nc2cccc(C)c2)cc1,-2.2
19,COc1cccc(C(=O)Nc2ccc(C)cc2)c1,7.5
20,COc1ccc(OC)c(NC(=O)c2ccco2)c1,-17
21,CCc1ccc(C(=O)Nc2ccc(C(=O)OC)cc2)cc1,2
22,COc1ccccc1NC(=O)c1ccco1,-5.4
23,COC(=O)c1cccc(NC(=O)c2ccc(C)cc2)c1,16.4
24,O=C(Nc1cc(C(F)(F)F)cc(C(F)(F)F)c1)c1ccco1,31.9

row,SMILES,viability at 30 µM [%]
1,COC(=O)c1ccccc1NC(=O)c1cccc(C)c1,29.6
2,COC(=O)c1cccc(NC(=O)c2ccc(OC)cc2)c1,18.8
3,Cc1ccc(C(=O)Nc2cccc(C)c2)cc1,14.3
4,COC(=O)c1cccc(NC(=O)c2cccc(C)c2)c1,10.5
5,CC(=O)c1ccc(NC(=O)c2ccc(C#N)cc2)cc1,6.9
6,Cc1ccc(NC(=O)c2ccc(C#N)cc2)cc1,10.9
7,Cc1ccc(C(=O)Nc2cc(C(F)(F)F)cc(C(F)(F)F)c2)cc1,0.3
8,CCc1ccc(C(=O)Nc2ccc(C)cc2)cc1,1.8
9,COc1ccc(OC)c(NC(=O)c2ccc(C)cc2)c1,-3.2
10,CCc1ccc(C(=O)Nc2cc(OC)cc(OC)c2)cc1,10.1
11,COC(=O)c1ccccc1NC(=O)c1ccc(C)cc1,20.1
12,COc1ccc(NC(=O)c2ccc(OC)cc2)cc1,-10.6
13,CCCCOc1ccc(NC(=O)c2cccc(C)c2)cc1,4.8
14,CCc1ccc(C(=O)Nc2ccccc2C(=O)OC)cc1,18.9
15,COc1ccc(C(=O)Nc2cccc(C)c2)cc1,-1.7
16,COC(=O)c1ccccc1NC(=O)c1ccco1,-2.3
17,COc1ccc(NC(=O)c2ccc(C)cc2)c(OC)c1,14.4
18,Cc1cccc(NC(=O)c2cccc(C)c2)c1,-0.1
19,COc1ccc(C(=O)Nc2cccc(OC)c2)cc1,0.6
20,CCc1ccc(C(=O)Nc2ccccc2OC)cc1,13.5
21,CCCCOc1ccc(NC(=O)c2ccc(OC)cc2)cc1,1
22,CC(=O)c1ccc(NC(=O)c2ccccc2C)cc1,0.1
23,COc1ccc(C(=O)Nc2cc(C)cc(C)c2)cc1,31.9
24,COc1ccc(NC(=O)c2c(OC)cccc2OC)cc1,10.2

row,SMILES,viability at 30 µM [%]
1,COc1ccc(NC(=O)c2ccc(C)cc2)cc1,4.9
2,COc1ccc(OC)c(NC(=O)c2ccccc2C)c1,8.6
3,CCCCOc1ccc(NC(=O)c2ccc(C)cc2)cc1,-2.4
4,Cc1cc(C)cc(NC(=O)c2ccc(C#N)cc2)c1,31.6
5,COc1cc(NC(=O)c2ccccc2C)cc(OC)c1,6.4
6,CCCCOc1ccc(NC(=O)c2ccc(C#N)cc2)cc1,-4.4
7,COc1cc(NC(=O)c2ccc(C#N)cc2)cc(OC)c1,9.6
8,COC(=O)c1cccc(NC(=O)c2ccco2)c1,0.4
9,Cc1cccc(NC(=O)c2ccccc2C)c1,5.8
10,COc1ccc(C(=O)Nc2ccc(C)cc2)cc1,0.7
11,CCc1ccc(C(=O)Nc2cc(OC)ccc2OC)cc1,-19.8
12,Cc1cc(C)cc(NC(=O)c2ccco2)c1,14.2
13,COC(=O)c1ccccc1NC(=O)c1cccc(OC)c1,11.1
14,COc1ccc(NC(=O)c2cccc(C)c2)c(OC)c1,3.2
15,COc1ccccc1NC(=O)c1ccccc1C,7
16,COc1cccc(C(=O)Nc2cc(C)cc(C)c2)c1,32
17,CCc1ccc(C(=O)Nc2ccc(OC)cc2)cc1,-9.9
18,Cc1ccc(NC(=O)c2ccccc2C)cc1,-0.2
19,COc1ccc(NC(=O)c2ccco2)cc1,13.6
20,COc1cccc(NC(=O)c2ccccc2C)c1,13.4
21,COc1ccc(C(=O)Nc2ccccc2OC)cc1,-2.6
22,CC(=O)c1ccc(NC(=O)c2ccco2)cc1,-2.6
23,COc1cccc(C(=O)Nc2cc(OC)ccc2OC)c1,17.8
24,Cc1ccc(NC(=O)c2ccc(C)cc2)cc1,13.9

row,SMILES,viability at 30 µM [%]
1,COc1cc(NC(=O)c2ccc(C)cc2)cc(OC)c1,19.2
2,COc1ccccc1NC(=O)c1cccc(C)c1,11.1
3,COc1cccc(C(=O)Nc2ccc(C(C)=O)cc2)c1,-5
4,Cc1cccc(NC(=O)c2ccco2)c1,-1.3
5,N#Cc1ccc(C(=O)Nc2cc(C(F)(F)F)cc(C(F)(F)F)c2)cc1,33.3
6,CC(=O)c1ccc(NC(=O)c2ccc(C)cc2)cc1,11.2
7,CCc1ccc(C(=O)Nc2ccc(C(C)=O)cc2)cc1,3.4
8,Cc1ccc(NC(=O)c2cccc(C)c2)cc1,-2.4
9,COc1cccc(C(=O)Nc2cc(C(F)(F)F)cc(C(F)(F)F)c2)c1,9
10,Cc1cc(C)cc(NC(=O)c2ccccc2C)c1,25.6
11,COc1ccc(OC)c(NC(=O)c2cccc(C)c2)c1,0.3
12,COC(=O)c1ccc(NC(=O)c2ccc(OC)cc2)cc1,-5.6
13,CCc1ccc(C(=O)Nc2cccc(OC)c2)cc1,6.3
14,COc1cccc(C(=O)Nc2cccc(C)c2)c1,12
15,COc1ccc(NC(=O)c2ccc(C#N)cc2)cc1,8.8
16,COc1cccc(NC(=O)c2ccc(C#N)cc2)c1,-9.4
17,COc1ccc(NC(=O)c2ccc(C#N)cc2)c(OC)c1,7.2
18,Cc1cccc(C(=O)Nc2cc(C(F)(F)F)cc(C(F)(F)F)c2)c1,-2.3
19,COC(=O)c1cccc(NC(=O)c2ccccc2C)c1,4.6
20,Cc1ccc(NC(=O)c2ccco2)cc1,7.9
21,Cc1cc(C)cc(NC(=O)c2cccc(C)c2)c1,6
22,COc1ccc(NC(=O)c2cccc(C)c2)cc1,-0.4
23,COc1ccc(C(=O)Nc2cc(OC)cc(OC)c2)cc1,13.6
24,COc1ccccc1NC(=O)c1ccc(C#N)cc1,-3.1

# Same assay, conditions: melan-a, 30 µM
row,SMILES,Activity
1,CCc1ccc(C(=O)Nc2cc(C)cc(C)c2)cc1,41.5% and > 90%

# Test system: Cavia porcellus
# Assay: Antimelanogenic activity in guinea pig skin assessed as inhibition of UVB-induced pigmentation at 10 ug administered topically bid for 4 weeks
# Assay type: functional, organism-based
# Conditions: not given
row,SMILES,Activity
1,COc1cccc(C(=O)Nc2cc(C)cc(C)c2)c1,Active
